Data taken from patent US8592419B2, “Ceramides and apoptosis-signaling ligand” (MUSC Foundation for Research Development, priority 2004, dated 2013).

Legend:
Type in all cases: cell-based, human
PPC-1/pcDNA3 cells = experiment: MTS cell viability assay in PPC-1/pcDNA3 cells with kinase inhibitors; conditions: 20 μM SB-203580, 40 μM SP600125, LCL204 8 hours
Experimental: MTS cytotoxicity assays for LCL204 treatments. Cell viability was determined using the CellTiter 96 AQueous One Solution Cell Proliferation Assay (Promega; Madison, Wis., USA). 1×10^4 cells per well were seeded in 96-well plates overnight. The next day media was removed and replaced with either 100 μl media with vehicle control or media containing LCL204 at desired concentrations. Assays were carried out according to manufacturer's instruction as previously described (60). For experiments using enzyme inhibitors and LCL204, media was removed and replaced with 50 μl media containing vehicle only or indicated inhibitor. Cells were pretreated 1 hour at 37° C. before adding 50 μl media containing vehicle, inhibitor only, LCL204 only (2× concentration), or a combination. The remainder of the assay was carried out as described above.
Stable transfections. Both CMV-TAM67 and pcDNA3 vectors were from Dr. Michael Birrer (National Cancer Institute; Rockville, Md.). PPC-1 cells (7×10^5) were transfected with 4 μg of DNA in 60 mm dishes using FuGENE6 according to the manufacturer's instructions. Stably transfected clones were selected in 400 μg/mL G418 (Sigma). TAM67 was detected by Western blot analysis using an antibody for c-Jun (Ab-1, Oncogene) as described above.

p73 = experiment: Immunoblot of p73
Experimental: (§1) Immunoblot analysis. Cells were seeded in 60mm plates as described above and treated accordingly. Cells were lifted by gently scraping the plates, washed once with ice cold PBS and then lysed in lysis buffer (PBS, 1% Triton X-100, 10% glycerol) containing protease inhibitors pepstatin A (0.5 μg/ml), leupeptin (0.5 μg/ml), aprotinin (5 μg/ml), and PMSF (100 μg/ml) for 10 minutes on ice. Insoluble material was removed by centrifugation at 14,000 rpm for 15 minutes at 4° C. The supernatants were then supplemented with SDS at a final concentration of 2% and stored at −80° C. Protein concentrations were determined using the DC Protein Assay (BioRad Laboratories; Hercules, CA, USA) according to the manufacturer's instructions. 50 μg of protein per sample (unless otherwise indicated) were separated on NuPAGE 4-12% Bis-Tris gels (Invitrogen; Carlsbad, CA, USA) and transferred to nitrocellulose membranes (BioRad). Following transfer, membranes were blocked for 1 hour at room temperature in Tris-buffered saline (TBS) containing 0.1% Tween-20 and 5% nonfat dry milk and incubated overnight at 4° C. with primary antibody at a dilution of 1:2,000(actin), 1:1,000(cytochrome c, COX IV, Bax, Bak, p53, p38, P-p38), 1:500(P-JNK, JNK), 1:250 (AC, p73), or 1:400(LAMP-1, cathepsin B). Overnight incubations were performed in 5% milk in TBS-Tween. Following overnight incubation, membranes were washed three times for 10 minutes each in TBS-Tween and incubated for 1 hour at room temperature with secondary antibody in 5% milk TBS-Tween at a dilution 1:5,000 (goat anti-mouse IgG) or 1:50,000 (goat anti-rabbit). Membranes were then washed three times more and incubated for 5 minutes at room temperature with Super Signal HRP substrate (Pierce Biotechnology Inc.; Rockford, IL, USA).

Bak = Bak protein level and Bak foci (Western blot, confocal microscopy); conditions: PPC-1 transfectants, with LCL204 7.5 μM
Experimental: as §1
Confocal Microscopy and Immunocytochemistry. DU145 cells were grown in 4.3 cm^2 chamber slides (Nalge Nunc) and transfected with YFPmito alone or with the dominant-negative inhibitor of Drp1(K38A) (64) using FuGENE6 (Roche; Indianapolis, IN) according to the manufacturer's instructions using 1 μg of total DNA per chamber. 24 hr after transfection and 30 min prior to treatment with 15 μM LCL204, cells were exposed to zVAD-fmk (50 μM). The slides were fixed with 4% paraformaldehyde for 20 min then permeabilized with 0.2% Triton X-100 for 15 min, followed by blocking with 4% bovine serum albumin for 45 min at RT. Cells were probed with rabbit polyclonal 2-14 anti-Bak antibody (1:5000; BioChem) for 2 hr then stained with goat anti-rabbit Alexa Fluor 543 antibodies (1:250; Molecular Probes) for 45 min. After washing, cells were imaged using the 63x objective of an LSM 510 Zeiss confocal microscope.

For C[S+]([O-])c1ccc(-c2nc(-c3ccncc3)c(-c3ccc(F)cc3)[nH]2)cc1 (stereo not shown) [SB-203580, reference compound], the “effect on LCL204 cell killing” value (PPC-1/pcDNA3 cells) was “inhibited cell killing to a similar extent”, the “basal p73 levels, inhibitor alone” value (p73; PPC-1/pcDNA3 and PPC-1/TAM67 cells, 5 hours) was “lowered basal p73 levels” and the “effect of kinase inhibitor on LCL204-induced p73 induction” value (p73; PPC-1 transfectants, with LCL204 7.5 μM) was “blocked the LCL204-induced p73 up-regulation”. For the same molecule, the “effect of p38 MAPK inhibitor on LCL204-mediated Bak protein levels” value (Bak) was “did not appear to block”.
